Drawing on US20100152244A1, “SELF-EMULSIFYING FORMULATION OF TIPRANAVIR FOR ORAL ADMINISTRATION” (BOEHRINGER INGELHEIM INTERNATIONAL GMBH, priority 2008, published 2010), this text covers logP for one compound.

A word on the logP: it is a log measure of how a compound divides between an organic and an aqueous phase. Lower therefore signals a more hydrophilic compound.

The nature of this data set: lipophilicity (Log P). It counts as physicochemical. The text has this:
One possible reason for the self emulsifying behavior of the Capmul-free formulation is that tipranavir which is a highly lipophilic compound (Log P=6) once dissolved serves as a lipid core in this pre-concentrated microemulsion system. However, this rationale is only a theory and it was certainly not available to serve as guidance and motivation to us when we set about to solve the instability problem posed by the Capmul-containing formulation.

Compound `CCC[C@@]1(CCc2ccccc2)CC(O)=C([C@H](CC)c2cccc(NS(=O)(=O)c3ccc(C(F)(F)F)cn3)c2)C(=O)O1` [tipranavir, N-[3-[(1R)-1-[(6R)-5,6-dihydro-4-hydroxy-2-oxo-6-(2-phenylethyl)-6-propyl-2H-pyran-3-yl]propyl]phenyl]-5-(trifluoromethyl)-2-pyridinesulfonamide] registered a logP of 6.
